Test results published in EP0475411B1, “Novel carbocyclic adenosine analogs useful as immunosuppressants” (Aventis Pharmaceuticals Inc., priority 1990, dated 1992).
pIC50: −log10 of the molar value. Counter-ions that a name gives are not always drawn. Like-named read-outs stand apart in the source and are kept apart here.

Key:
rat PMNs = assay: Inhibition of priming of rat PMN (PMA + rrIFN-γ or rHuIL-1), Superoxide Anion (O2-) assay; type: cell-based; settings: PMA 200 ηg/mL, compound 0 to 1000 µM, superoxide anion readout
Method: The rat air pouch model of inflammation was used to obtain rat PMNs using 25ηg/pouch of recombinant human interleukin-1 (rHuIL-1) to elicit the cells essentially according to the method of Esser et al. [Internat. J. Tissue Reactions XI, 291 (1989)]. PMNs were incubated along with phorbol myristate acetate (PMA)(200ηg/mL), which acts as a soluble stimulus, and rrIFN-γ (1000 Units/mL), which acts as a stimulatory lymphokine, or rHuIL-1 (500 Units/mL), which acts as a stimulatory cytokine, in the presence of various concentrations of (1S,3R)-Cis-1(9-adenyl)-3-hydroxycyclopentane (0 to 1000 µM). The degree of macrophage priming was measured using the Superoxide Anion (O2-) assay as described by Edwards et al. [Science 239, 769 (1988)].

[1] = system: Rat peritoneal macrophages; assay: Inhibition of priming of rat peritoneal macrophages (opsonized zymosan + rrIFN-γ), Superoxide Anion (O2-) assay; type: cell-based; settings: opsonized zymosan 3 mg/mL, rrIFN-γ 1000 Units/mL; compound 0 to 1000 µM; superoxide anion readout; read-out: IC50 (inhibits the priming of rat macrophages in vitro)
Method: Rat peritoneal macrophages were isolated and grown in cell culture essentially as described by Edwards et al. [Science 239, 769 (1988)]. Macrophages were incubated along with opsonized zymosan (3 mg/mL), which acts as a particulate stimulus, and recombinant rat γ-interferon (rrIFN-y)(1000Units/mL), which acts as an activating lymphokine, in the presence of various concentrations of (1S,3R)-Cis-l(9-adenyl)-3-hydroxycyclopentane (0 to 1000µM). The degree of macrophage priming was measured using the Superoxide Anion (O2-) assay as described by Edwards et al. [Science 239, 769 (1988)].

**Q.** How did the pIC50 (rat PMNs; rHuIL-1 500 Units/mL, read-out: IC50 (inhibits the rHuIL-1 priming of rat PMN in vitro)) turn out when `Nc1ncnc2c1ncn2[C@H]1CC[C@@H](O)C1` [(1S,3R)-Cis-1-(9-adenyl)-3-hydroxycyclopentane hydrochloride] was run?
**A.** Its pIC50 is 9.00.

**Q.** And the pIC50 (rat PMNs; rrIFN-γ 1000 Units/mL, read-out: IC50 (inhibits the rrIFN-γ priming of rat PMN in vitro))?
**A.** Its pIC50 is 9.00.

**Q.** With “(1S,3R)-Cis-l(9-adenyl)-3-hydroxy-4-cyclopentene” as the compound, how does the pIC50 [1] read?
**A.** The pIC50 was 5.60.
